Source: patent US20090192137A1, “Dialysis method” (AstraZeneca AB, priority 1993, published 2009)

What was measured:
[1] = Pig study: clearance of iohexol to monitor filter clearance; type: in vivo; conditions: Swedish Land Race, plasma and dialysing solution, intravenous, 6000 mg, dialysis filter clearance, measured every half-hour, two experiments
Method: (§1) Before connection of the efferent and afferent blood lines, 20 mL (300 mg/mL) of iohexol (Omnipaque®, Nycomed AB, Lidingö, Sweden) was administered in the ear vein to monitor filter clearance. Two minutes before the start of dialysis, 0.15 μmol/kg of melagatran was given via the right femoral vein as a bolus.
Amounts of iohexol in plasma and dialysing solution were determined at the Laboratory of the Division of Nephrology (Sahlgren's University Hospital, Gothenberg, Sweden) using a Reanalyzer PRX 90 (Provalid AB Lund, Sweden).

[2] = Pig study: concentration of melagatran in plasma and dialysis outlet during dialysis; type: in vivo
Method: Two Swedish Land Race pigs weighing 59 and 57 kg respectively were used. Anaesthesia was induced using Ketaminol® (10 mg/kg, i.m. Veterinaria AG, Switzerland) and Dormicum® (1 to 2 mg/kg, i.m. Roche, Basel, Switzerland), followed by, after 20 minutes, Diprivan® ([…] i.v. Zeneca Limited, Macclesfield, Cheshire, United Kingdom), intubated and ventilated at 15 cycles/minute with air containing 2 to 3% Forene® (Abbott Scandinavia AB, Kista. Sweden) using a Servo Ventilator 900C (Siemens Elema, Solna, Sweden).
(§2) The anaesthetised pigs were subjected to bilateral ligation of renal arteries and veins using lateral flank approaches. The wounds were then closed and the animals were placed on their backs. Two catheters (Kimal, K41/3B/LL, Uxbridge, England) were inserted into the right femoral artery and vein for connection to the dialysis equipment. The artery catheter was used to provide blood to (efferent blood line), and the vein catheter to receive blood from (afferent blood line), the dialysis filter. One polyethylene catheter (Intramedic PE-200, Clay Adams, Parsippany, N.J., USA) was inserted into an artery (right saphenous in pig A and brachial in pig B) for blood pressure (MAP) recording (transducer Peter von Berg Medizintechnik GmbH, Kirchseeon/Eglharting, Germany) and for blood samples, pH and blood gas measurements.
(§3) Before the start of dialysis, the LunDia Pro 600 dialysis filter (Gambro, Lund, Sweden) was primed on both sides for 15 minutes with Biosol A201.5 glucose (Pharmalink, Solna, Sweden) dialysis concentrate diluted 1:35 using a Gambro AK-100 (Grambro. Lund, Sweden) haemodialysis equipment (see FIG. 5). The dialysis concentrate was supplemented with melagatran (35 μM; thus providing 1 μM after dilution). The flow rate was adjusted to 500 mL/min on the dialysing solution side and to 250 mL/min on the blood side of the membrane by separate pumps. Pressure was measured (transducer Peter von Berg Medizintechnik) on both sides of the dialysis membrane.
as §1
After connection of blood lines and two minutes after the administration of the melagatran bolus dose, dialysis was started and carried out for 3 hours. Then, the procedure was interrupted, the blood lines disconnected and the filter and blood lines washed by pumping saline instead of blood to check for the presence of macroscopic blood clots.
The amount of melagatran in plasma was quantified using liquid chromatographic and mass spectrometric methods (BA-285, AstraZeneca R&D, Mölndal, Sweden).

[3] = system: anaesthetised pigs without kidney function; test: Pig study: prevention of coagulation and maintained filter function during haemodialysis; type: in vivo
Description: The aim of this study was to test whether melagatran, given via the dialysing solution during dialysis could prevent coagulation and allow a maintained filter function throughout the session in acute experiments with anaesthetised pigs without kidney function.
To avoid very early thrombotic occlusion of blood lines and filters, which, if observed, would have prevented the drawing of meaningful conclusions regarding the utility of the method, an i.v. bolus dose of melagatran was given immediately before the start of extracorporeal blood circulation in these experiments.
as §2
as §3, with “membrane. […]” for “membrane.”

thrombin [4] = molecular target: T1, thrombin (Sus scrofa, UniProt Q19AZ8); conditions: TAS equipment, during dialysis session
Method: For the determination of activated partial thromboplastin time (APTT), ecarin clotting time (ECT) and the amount of melagatran in plasma, twelve aliquots of blood were drawn at specific time points into plastic tubes containing one volume of 0.13 M sodium citrate. Plasma was recovered after immediate centrifugation (10,000 g for 5 minutes) and stored at −20° C. prior to analysis. For the determination of the amount of iohexol in plasma, blood was drawn in heparinized tubes, centrifuged is (10,000 g for 5 minutes) and stored at −20° C. prior to analysis.
ECT was determined in 30 μL citrate plasma using a TAS device (Thrombolytic Assessment System, Cardiovascular Diagnostics Inc., Raleigh, N.C.) and appropriate solid reagent test cards, as recommended.

thrombin [5] = molecular target: T1, thrombin; conditions: during dialysis session
Method: For the determination of activated partial thromboplastin time (APTT), ecarin clotting time (ECT) and the amount of melagatran in plasma, twelve aliquots of blood were drawn at specific time points into plastic tubes containing one volume of 0.13 M sodium citrate. Plasma was recovered after immediate centrifugation (10,000 g for 5 minutes) and stored at −20° C. prior to analysis.
APTT was determined using a KC10 A micro coagulometer (Amelung, Lemago, Germany). 25 μL of citrate plasma was incubated with 25 μL of PTT-Automate reagent (Diagnostica Stago, Asnieres, France) for 3 minutes. Coagulation was started using 25 μL of 0.025 M CaCl2 (Diagnostica Stago, Asniéres. France) and the time taken to the start of coagulation was measured.

Row | SMILES | clearance [1] | concentration at 2 min ([2]; Swedish Land Race, pig, plasma, iv, 0.15 μmol/kg, start of dialysis, 2 minutes after i.v. bolus dose, both pigs, read-out: concentration of melagatran in plasma (efferent blood)) | time to equilibration ([2]; acutely anuric pig) | concentration of melagatran in the dialysis outlet, higher than on the blood side ([2]; except the very first sample at the start of dialysis) | concentration of melagatran in plasma, level-off ([2]; over the first ˜0 minutes of dialysis, then quite constant, dialysing solution 1 μM expected) | macroscopic thrombi in filters and tubing after dialysis ([3]; 3 hour dialysis, both pigs, washed with saline over 15 minutes) | filter function ([3]; judged from iohexol clearance, 3 hours of dialysis) | pressure in the efferent blood-line ([3]; one pig, 3 hour dialysis, stable) | ecarin clotting times (ECT), relation to drug concentration in plasma (thrombin [4]) | APTT times, relation to melagatran concentration (thrombin [5])
1 | CC(=O)N(CC(O)CO)c1c(I)c(C(=O)NCC(O)CO)c(I)c(C(=O)NCC(O)CO)c1I (stereo not shown) [iohexol] | ~150 mL/min |  |  |  |  |  |  |  |  | 
2 | N=C(N)c1ccc(CNC(=O)[C@@H]2CCN2C(=O)[C@H](NCC(=O)O)C2CCCCC2)cc1 [melagatran, HOOC—CH2—(R)Cgl-Aze-Pab-H] |  | 900 to 1000 nM | within one hour | about 0.2 μM | about 0.25 μM | macroscopic thrombi had not been formed | filter function was maintained over the full 3 hours of dialysis | about 275 mm Hg | closely reflected drug concentrations in plasma | proportional to the logarithm of melagatran concentration
